Measured values reported in paper PMC7468108 (Communications Biology, 2020).

Legend:
Aβ42 [1] = target: T1, Aβ42 (Homo sapiens, UniProt P05067); experiment: Congo red birefringence of Aβ42 fibrils formed with the tested molecules; conditions: 5-fold excess of compound
T1 construct: purchased rPeptide (USA)
From the text: These fibrils also generated the amyloid specific gold-green birefringence upon staining with Congo red (Fig. 3, bottom panel and Supplementary Fig. 6)[74].

[2] = target: T2, pre-formed fibrils of Aβ42 (Homo sapiens, UniProt P05067); experiment: Congo red birefringence of pre-formed Aβ42 fibrils with the tested molecules; conditions: 5-fold excess of compound
T2 construct: purchased rPeptide (USA)
Description: For efficient treatment of proteinopathies it may be advantageous to disassemble amyloid aggregates/fibrils which are usually already present at the time of diagnosis[75]–[77]. Therefore, the ability of the hybrid molecules to disrupt pre-formed fibrils of Aβ42 and hIAPP was examined. […] According to the ThT kinetic results, this time was sufficient to complete fibril formation (Fig. 2a, d). Then, various doses of the hybrid molecules were added to the pre-formed fibrils and the mixtures were incubated for additional 10 h. The process of disaggregation was monitored by ThT-binding assay, CD spectroscopy, TEM and Congo red staining (Fig. 5).

Aβ42 [3] = target: T1, Aβ42; experiment: CD spectroscopy of Aβ42 aggregated with the tested molecules; conditions: 5-fold molar excess of compound
Description: (§1) The blank was subtracted from the acquired CD spectra. For the CD study in the presence of the tryptophan-galacosylamine molecules, the spectra of hybrid molecules were also recorded separately and subtracted from the respective sample spectra. The normalized data were plotted using Origin pro 2015 software.

[4] = target: T3, pre-formed fibrils of hIAPP (Homo sapiens, UniProt P10997); experiment: CD spectroscopy of pre-formed hIAPP fibrils with the tested molecules; conditions: hIAPP : molecule (1:5)
T3 construct: hIAPP is a 37-amino acid neuroendocrine peptide hormone; purchased Peptide 2.0 (USA)
T3 sequence (P10997 34-70 limits assumed): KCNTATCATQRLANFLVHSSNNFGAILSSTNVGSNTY
Description: For efficient treatment of proteinopathies it may be advantageous to disassemble amyloid aggregates/fibrils which are usually already present at the time of diagnosis[75]–[77]. […] Then, various doses of the hybrid molecules were added to the pre-formed fibrils and the mixtures were incubated for additional 10 h. The process of disaggregation was monitored by ThT-binding assay, CD spectroscopy, TEM and Congo red staining (Fig. 5).
as §1

T1 sequence (P05067 672-713 limits assumed): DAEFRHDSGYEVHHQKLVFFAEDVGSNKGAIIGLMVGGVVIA
T2 sequence (P05067 672-713 limits assumed): as above

## NC(Cc1c[nH]c2ccccc12)C(=O)NC(Cc1c[nH]c2ccccc12)C(=O)O (stereo not shown) [WW]
Aβ42 [1]
  Congo red birefringence of Aβ42, in words: intense gold-green birefringence
[2]
  Congo red birefringence of pre-formed Aβ42 fibrils, in words: faint birefringence
Aβ42 [3]
  effect on Aβ42 secondary structure (CD), in words: No significant variation
[4]; wavelength 190.00
  Normalized CD spectra: -1159830.00
[4]; wavelength 190.50
  Normalized CD spectra: -799592.59
[4]; wavelength 191.00
  Normalized CD spectra: -466296.57
[4]; wavelength 191.50
  Normalized CD spectra: -159943.13
[4]; wavelength 192.00
  Normalized CD spectra: 119467.75
[4]; wavelength 192.50
  Normalized CD spectra: 371936.05
[4]; wavelength 193.00
  Normalized CD spectra: 597461.77
[4]; wavelength 193.50
  Normalized CD spectra: 796044.93
[4]; wavelength 194.00
  Normalized CD spectra: 967685.51
[4]; wavelength 194.50
  Normalized CD spectra: 1212380.23
[4]; wavelength 195.00
  Normalized CD spectra: 1290140.24
[4]; wavelength 195.50
  Normalized CD spectra: 1323180.24
[4]; wavelength 196.00
  Normalized CD spectra: 1393960.26
[4]; wavelength 196.50
  Normalized CD spectra: 1424490.23
[4]; wavelength 197.00
  Normalized CD spectra: 1413320.40
[4]; wavelength 197.50
  Normalized CD spectra: 1387150.18
[4]; wavelength 198.00
  Normalized CD spectra: 1299100.11
[4]; wavelength 198.50
  Normalized CD spectra: 1256630.40
[4]; wavelength 199.00
  Normalized CD spectra: 1187490.08
[4]; wavelength 199.50
  Normalized CD spectra: 1142090.27
[4]; wavelength 200.00
  Normalized CD spectra: 1101290.79
[4]; wavelength 200.50
  Normalized CD spectra: 1045740.12
[4]; wavelength 201.00
  Normalized CD spectra: 960554.59
[4]; wavelength 201.50
  Normalized CD spectra: 884170.56
[4]; wavelength 202.00
  Normalized CD spectra: 793224.29
[4]; wavelength 202.50
  Normalized CD spectra: 710397.29
[4]; wavelength 203.00
  Normalized CD spectra: 623023.93
[4]; wavelength 203.50
  Normalized CD spectra: 548091.19
[4]; wavelength 204.00
  Normalized CD spectra: 460178.98
[4]; wavelength 204.50
  Normalized CD spectra: 362812.96
[4]; wavelength 205.00
  Normalized CD spectra: 267913.28
[4]; wavelength 205.50
  Normalized CD spectra: 183033.71
[4]; wavelength 206.00
  Normalized CD spectra: 99125.43
[4]; wavelength 206.50
  Normalized CD spectra: 21202.95
[4]; wavelength 207.00
  Normalized CD spectra: -58441.14
[4]; wavelength 207.50
  Normalized CD spectra: -134432.91
[4]; wavelength 208.00
  Normalized CD spectra: -202839.97
[4]; wavelength 208.50
  Normalized CD spectra: -260187.32
[4]; wavelength 209.00
  Normalized CD spectra: -323573.72
[4]; wavelength 209.50
  Normalized CD spectra: -382447.61
[4]; wavelength 210.00
  Normalized CD spectra: -437399.79
[4]; wavelength 210.50
  Normalized CD spectra: -489520.86
[4]; wavelength 211.00
  Normalized CD spectra: -539599.27
[4]; wavelength 211.50
  Normalized CD spectra: -576249.85
[4]; wavelength 212.00
  Normalized CD spectra: -613623.93
[4]; wavelength 212.50
  Normalized CD spectra: -639995.46
[4]; wavelength 213.00
  Normalized CD spectra: -663323.35
[4]; wavelength 232.00
  Normalized CD spectra: -332238.92
[4]; wavelength 232.50
  Normalized CD spectra: -324045.26
[4]; wavelength 233.00
  Normalized CD spectra: -310464.00
[4]; wavelength 233.50
  Normalized CD spectra: -306656.69
[4]; wavelength 234.00
  Normalized CD spectra: -298160.53
[4]; wavelength 234.50
  Normalized CD spectra: -288025.21
[4]; wavelength 235.00
  Normalized CD spectra: -277617.45
[4]; wavelength 235.50
  Normalized CD spectra: -265647.30
[4]; wavelength 236.00
  Normalized CD spectra: -250898.81
[4]; wavelength 236.50
  Normalized CD spectra: -242222.13
[4]; wavelength 237.00
  Normalized CD spectra: -231613.39
[4]; wavelength 237.50
  Normalized CD spectra: -223355.72
[4]; wavelength 238.00
  Normalized CD spectra: -218172.86
[4]; wavelength 238.50
  Normalized CD spectra: -206535.49
[4]; wavelength 239.00
  Normalized CD spectra: -191737.01
[4]; wavelength 239.50
  Normalized CD spectra: -180445.52
[4]; wavelength 240.00
  Normalized CD spectra: -179664.78
[4]; wavelength 240.50
  Normalized CD spectra: -172296.10
[4]; wavelength 241.00
  Normalized CD spectra: -162102.32
[4]; wavelength 241.50
  Normalized CD spectra: -148455.67
[4]; wavelength 242.00
  Normalized CD spectra: -149233.62
[4]; wavelength 242.50
  Normalized CD spectra: -139443.53
[4]; wavelength 243.00
  Normalized CD spectra: -134411.20
[4]; wavelength 243.50
  Normalized CD spectra: -135270.09
[4]; wavelength 244.00
  Normalized CD spectra: -127740.28
[4]; wavelength 244.50
  Normalized CD spectra: -125334.77
[4]; wavelength 245.00
  Normalized CD spectra: -119297.62
[4]; wavelength 245.50
  Normalized CD spectra: -115863.12
[4]; wavelength 246.00
  Normalized CD spectra: -113285.78
[4]; wavelength 246.50
  Normalized CD spectra: -114529.09
[4]; wavelength 247.00
  Normalized CD spectra: -113972.59
[4]; wavelength 247.50
  Normalized CD spectra: -115521.93
[4]; wavelength 248.00
  Normalized CD spectra: -110033.91
[4]; wavelength 248.50
  Normalized CD spectra: -107626.80
[4]; wavelength 249.00
  Normalized CD spectra: -94087.61
[4]; wavelength 249.50
  Normalized CD spectra: -91943.44
[4]; wavelength 250.00
  Normalized CD spectra: -91987.89
[4]; wavelength 250.50
  Normalized CD spectra: -83982.51
[4]; wavelength 251.00
  Normalized CD spectra: -78786.13
[4]; wavelength 251.50
  Normalized CD spectra: -77492.66
[4]; wavelength 252.00
  Normalized CD spectra: -81506.91
[4]; wavelength 252.50
  Normalized CD spectra: -74477.64
[4]; wavelength 253.00
  Normalized CD spectra: -78503.70
[4]; wavelength 253.50
  Normalized CD spectra: -82822.05
[4]; wavelength 254.00
  Normalized CD spectra: -81558.46
[4]; wavelength 254.50
  Normalized CD spectra: -84392.86
[4]; wavelength 255.00
  Normalized CD spectra: -84114.71
[4]; wavelength 255.50
  Normalized CD spectra: -85462.25
[4]; wavelength 256.00
  Normalized CD spectra: -87106.95
[4]; wavelength 256.50
  Normalized CD spectra: -89048.81
[4]; wavelength 257.00
  Normalized CD spectra: -91287.84
[4]; wavelength 257.50
  Normalized CD spectra: -93824.03
[4]; wavelength 258.00
  Normalized CD spectra: -96657.38
